Source: ChEMBL document CHEMBL3352254, “Inhibitors of HGFA, Matriptase, and Hepsin Serine Proteases: A Nonkinase Strategy to Block Cell Signaling in Cancer” (ACS Med Chem Lett, 2014)
Residues, ends and D or L forms follow the SMILES beside them.

What was measured:
[1] = biological target: T1, Suppressor of tumorigenicity 14 protein (Homo sapiens, UniProt Q9Y5Y6); assay: Inhibition of matriptase (unknown origin) using Boc-QAR-AMC as substrate by fluorescence assay
T1 sequence (Q9Y5Y6 whole entry): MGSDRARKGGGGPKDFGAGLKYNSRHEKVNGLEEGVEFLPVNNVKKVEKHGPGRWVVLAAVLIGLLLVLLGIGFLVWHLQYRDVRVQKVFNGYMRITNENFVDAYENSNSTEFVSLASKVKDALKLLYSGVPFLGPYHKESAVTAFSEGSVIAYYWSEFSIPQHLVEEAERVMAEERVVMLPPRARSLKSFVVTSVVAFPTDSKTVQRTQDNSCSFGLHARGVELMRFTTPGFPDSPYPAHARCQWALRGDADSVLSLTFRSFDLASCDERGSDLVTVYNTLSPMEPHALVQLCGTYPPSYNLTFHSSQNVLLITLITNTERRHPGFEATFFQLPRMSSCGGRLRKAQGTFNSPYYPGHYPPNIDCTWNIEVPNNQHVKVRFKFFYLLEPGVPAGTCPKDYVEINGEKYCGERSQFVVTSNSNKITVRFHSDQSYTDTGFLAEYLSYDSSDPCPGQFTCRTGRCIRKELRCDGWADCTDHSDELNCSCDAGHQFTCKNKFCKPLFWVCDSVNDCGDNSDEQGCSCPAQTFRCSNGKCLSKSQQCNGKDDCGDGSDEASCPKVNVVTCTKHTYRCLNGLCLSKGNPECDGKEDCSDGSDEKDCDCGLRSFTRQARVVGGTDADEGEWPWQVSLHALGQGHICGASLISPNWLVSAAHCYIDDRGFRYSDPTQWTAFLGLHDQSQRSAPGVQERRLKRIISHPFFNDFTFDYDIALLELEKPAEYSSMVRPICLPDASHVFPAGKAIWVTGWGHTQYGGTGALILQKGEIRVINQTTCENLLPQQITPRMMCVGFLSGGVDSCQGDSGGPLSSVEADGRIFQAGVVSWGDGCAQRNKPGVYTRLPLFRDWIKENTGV

[2] = biological target: Serine protease hepsin (Homo sapiens, UniProt P05981); assay: Inhibition of recombinant hepsin (unknown origin) using Boc-QAR-AMC as substrate by fluorescence assay
Sequence of Serine protease hepsin (P05981 1-162 limits assumed): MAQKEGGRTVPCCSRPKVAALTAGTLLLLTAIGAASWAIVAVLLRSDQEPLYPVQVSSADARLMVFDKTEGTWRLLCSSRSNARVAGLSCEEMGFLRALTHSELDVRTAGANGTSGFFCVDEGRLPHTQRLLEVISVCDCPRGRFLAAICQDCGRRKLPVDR
Sequence of Serine protease hepsin (P05981 163-417 limits assumed): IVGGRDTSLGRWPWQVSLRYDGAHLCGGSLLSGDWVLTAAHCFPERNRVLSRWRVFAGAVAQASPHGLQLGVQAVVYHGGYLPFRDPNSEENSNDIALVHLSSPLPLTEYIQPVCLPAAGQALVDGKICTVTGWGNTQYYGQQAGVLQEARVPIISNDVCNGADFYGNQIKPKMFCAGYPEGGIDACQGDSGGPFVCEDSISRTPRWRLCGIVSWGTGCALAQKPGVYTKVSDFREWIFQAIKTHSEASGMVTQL

[3] = organism: Homo sapiens; assay: Ratio of Ki for matriptase (unknown origin) to Ki for recombinant hepsin (unknown origin)
[4] = biological target: T2, Hepatocyte growth factor activator serine protease (Homo sapiens) (UniProt Q04756); assay: Inhibition of recombinant HGFA (unknown origin)-mediated proteolytic activation of pro-HGF after 1 hr by immunoblotting
T2 sequence (whole entry): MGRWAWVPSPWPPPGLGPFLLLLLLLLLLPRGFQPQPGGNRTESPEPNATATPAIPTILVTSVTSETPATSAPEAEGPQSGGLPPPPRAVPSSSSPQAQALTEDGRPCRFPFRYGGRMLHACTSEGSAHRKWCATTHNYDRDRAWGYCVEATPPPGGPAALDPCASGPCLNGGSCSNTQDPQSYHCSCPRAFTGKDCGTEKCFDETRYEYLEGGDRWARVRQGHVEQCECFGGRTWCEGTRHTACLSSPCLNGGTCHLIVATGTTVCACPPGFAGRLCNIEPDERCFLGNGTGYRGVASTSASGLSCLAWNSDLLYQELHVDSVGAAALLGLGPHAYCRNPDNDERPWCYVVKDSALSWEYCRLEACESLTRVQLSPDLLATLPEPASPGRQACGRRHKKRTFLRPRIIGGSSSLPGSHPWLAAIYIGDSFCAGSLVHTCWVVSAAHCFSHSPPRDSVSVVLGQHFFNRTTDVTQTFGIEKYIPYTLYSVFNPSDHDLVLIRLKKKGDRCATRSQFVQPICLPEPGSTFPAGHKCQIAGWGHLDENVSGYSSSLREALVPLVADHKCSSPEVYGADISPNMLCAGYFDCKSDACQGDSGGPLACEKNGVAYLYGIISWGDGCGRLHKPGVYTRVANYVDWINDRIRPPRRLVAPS

[5] = biological target: T2, Hepatocyte growth factor activator serine protease (Homo sapiens); assay: Inhibition of recombinant HGFA (unknown origin)-mediated proteolytic activation of pro-MSP after 1 hr by immunoblotting
[6] = organism: Homo sapiens; assay: Ratio of Ki for matriptase (unknown origin) to Ki for recombinant HGFA (unknown origin)
[7] = biological target: T3, Hepatocyte growth factor activator serine protease (Homo sapiens, UniProt Q04756); assay: (§1) Inhibition of HGFA in human MDA-MB-231 cells assessed as inhibition of c-MET phosphorylation after 15 mins by immunoblotting; type: cell-based
T3 sequence (Q04756 whole entry): T2 sequence (whole entry)

[8] = biological target: T2, Hepatocyte growth factor activator serine protease (Homo sapiens); assay: as §1; type: cell-based

SMILES	Ki [1]	inhibition [4]	inhibition [5]	EC50 [7]	other results
CC(=O)N[C@@H](CCCCN)C(=O)N[C@@H](CCC(N)=O)C(=O)N[C@@H](CC(C)C)C(=O)N[C@@H](CCCNC(=N)N)C(=O)c1nccs1	0.92 nM	Dose-dependent effect	Dose-dependent effect	–	Ki [2]: 0.22 nM; Ratio Ki [3]: 200
CC(=O)N[C@@H](CC(C)C)C(=O)N[C@@H](CC(C)C)C(=O)N[C@H](C=O)CCCNC(=N)N	–	–	–	–	Ratio Ki [6]: 3; Ratio Ki [3]: 3
CC(C)C[C@H](NC(=O)[C@H](CCCNC(=N)N)NC(=O)[C@@H](N)CCCCN)C(=O)N[C@@H](CCCNC(=N)N)C(=O)O (H-KRLR-OH)	–	–	–	180 nM	–
CC(=O)N[C@@H](CCCCN)C(=O)N[C@@H](CCCNC(=N)N)C(=O)N[C@@H](CC(C)C)C(=O)N[C@@H](CCCNC(=N)N)C(=O)c1nccs1	–	Dose-dependent effect	Dose-dependent effect	–	inhibition [8]: Dose-dependent effect
CC(=O)N[C@@H](CCCCN)C(=O)N[C@@H](Cc1cnc[nH]1)C(=O)N[C@@H](CC(C)C)C(=O)N[C@@H](CCCNC(=N)N)C(=O)c1nccs1	22 nM	–	–	–	–
N=C(N)c1ccc2cc(OC(=O)c3ccc(N=C(N)N)cc3)ccc2c1 [NAFAMOSTAT]	–	–	–	490 nM	–
CC(=O)N[C@@H](Cc1c[nH]c2ccccc12)C(=O)N[C@@H](CCCNC(=N)N)C(=O)N[C@@H](CC(C)C)C(=O)N[C@@H](CCCNC(=N)N)C(=O)c1nccs1	–	Dose-dependent effect	Dose-dependent effect	–	–
CC(=O)N[C@@H](Cc1c[nH]c2ccccc12)C(=O)N[C@@H](CCC(N)=O)C(=O)N[C@@H](CC(C)C)C(=O)N[C@@H](CCCNC(=N)N)C(=O)c1nccs1	32 nM	–	–	–	–
CC(=O)N[C@@H](CO)C(=O)N[C@@H](CCCNC(=N)N)C(=O)N[C@@H](CC(C)C)C(=O)N[C@@H](CCCNC(=N)N)C(=O)c1nccs1	–	–	Dose-dependent effect	–	–
CC(C)C[C@H](NC(=O)[C@H](CCC(N)=O)NC(=O)[C@@H](N)CCCCN)C(=O)N[C@@H](CCCNC(=N)N)C(=O)O (H-KQLR-OH)	–	–	–	3100 nM	–
